Results as given in US20220331348A1, “METHOD OF PREPARING PENTACYCLIC TRITERPENOID SAPONINS AND DRUG COMPOSITION” (CHINA PHARMACEUTICAL UNIVERSITY, priority 2019, published 2022).
Marks after values point to notes of the source that are not given here.

What was measured:
[1] = system: high fat diet induced NASH model rats; test: High fat diet (HFD) induced NASH rat model; assay type: in vivo; design: MDA: unit not given here
Method: Animal: 32 SD male rats of SPF level with 6 weeks old and 220 g were purchased from Beijing Vital River Laboratory Animal Technology Co., Ltd. All the animals maintained 12 h alternative circadian rhythm with free access to food.
Reagent: the ginsenoside Ro (I) was purchased from Shanghai Boka Chemistry Technology Co., Ltd; obeticholic acid (OCA) was purchased from Jiangsu Vcare PharmaTech Co., Ltd; high fat diets were purchased from Research Diets (D12492, 60 kcal %); and standard feeds were purchased from Research Diets (D12450B, 10 kcal %).
The rats were randomly divided into 4 groups based on the weight: a control group (CHOW), a high fat diet model group (HFD), a positive drug obeticholic acid (OCA, 5 mg/Kg) group (HFD+OCA) and a ginsenoside Ro (Ro for short, 5 mg/kg) group (HFD+Ro). The control group was fed with the standard feeds and drank water normally; and the rest groups were fed with the high fat diets, drank 10% aqueous sucrose solution for replacing the water and were modeled for 20 weeks.
After 20 weeks, the control group and the high fat diet model group were given with a CMC-Na solution with the volume fraction of 0.5% intragastrically every day, the HFD+OCA group was given with the obeticholic acid (5 mg/Kg) intragastrically every day, and the HFD+Ro was given with the ginsenoside Ro (5 mg/Kg) intragastrically every day. Administration was conducted for 8 weeks, during which, the control group was given with the standard feeds and drank the water normally, and the rest three groups were given with the high fat diets and drank 10% aqueous sucrose solution. The rats in each group were weighed every day, weights, hairs, feces and activity conditions were carefully observed and recorded.
The rats were deprived of food but not water for 12 h in advance; and the next morning, blood was taken from eye sockets, the rats were sacrificed, and livers were harvested. Right liver lobule tissues were fixed with 4% paraformaldehyde for HE stained slicing. A part of liver tissues were divided into 3 parts, which were snap-frozen in liquid nitrogen for subsequent detection of other indexes.
Whole blood was left to still standing for 2 h at room temperature, centrifugation was conducted for 15 min at 3000 rpm, and a serum was collected. 100 Mg of liver tissues were taken and homogenized with 0.9 mL of precooled normal saline, a homogenate was centrifuged for 15 min at 4° C. and 3000 rpm, and a supernatant was taken. Both of the serum and the supernatant were sent to Pathologic Department of Hospital of Integrated Traditional Chinese and Western Medicine in Jiangsu Province for determination of levels of triglyceride (TG), total cholesterol (TC), low density lipoprotein cholesterin (LDL-c) and high density lipoprotein cholesterol (HDL-c) in the serum and levels of the TG and the TC in the supernatant of the homogenate of the liver tissues with the full-automatic biochemical analyzer.
Pretreated tissues were sent to Google Biotechnology Co., Ltd for preparing HE stained slices and oil red stained slices.
Liver tissues preserved at −80° C. were put in the liquid nitrogen, about 10 mg of the liver tissues were quickly dissected out, 500 μL of precooled tissue lysate was added, and the tissues were homogenized with a homogenizer and then left to lyse on ice for 30 min; and centrifugation was conducted for 15min at 4° C. and 12000 rpm, […] of a supernatant was sucked to a clean EP tube, […] of the supernatant was taken for BCA protein quantification, […] of 5*loading buffer was added in the rest protein supernatant for denaturing by boiling, SDS-PAGE electrophoresis was conducted subsequently, the proteins were transferred onto a PVDF membrane, then incubation and elution of a relevant antibody were conducted, and finally, a chemiluminescence apparatus was employed for imaging analysis.

[2] = system: human ADPKD cyst lining epithelial cell lines WT9-12; test: Proliferation of polycystic kidney epithelial cells (CCK-8 method); assay type: cell-based; settings: polycystic kidney epithelial cells; 10 μM, 48 h; CCK-8; n = 6
Excerpt: Cell and reagent: complete media for human ADPKD cyst lining epithelial cell lines WT9-12 and DMEM were purchased from ATCC Company; fetal calf serums were purchased from Gibco Company; Cell Counting Kit-8 was purchased from DOJINDO Company; Click-iT® EdU Imaging Kits were purchased from Invitrogen™ Thermo Fisher Scientific Company; Caspase -3/CPP32 Colorimetric Assay Kit was purchased from BioVision Company; Annexin V/PI double-staining flow type cell apoptosis detection kits were purchased from Bender Company; and anti-Phospho-(AMPKa, mTOR, p70S6K, 4E-BP1) antibodies were purchased from Cell Signaling Technology Company.
The influence of 2-DG on proliferation of the polycystic kidney epithelial cells was detected with a CCK-8 method: a DMEM complete medium containing 10% fetal calf serum (FBS) was prepared. The polycystic kidney epithelial cells were cultured in an incubator with 5% CO2 at 37° C. after being recovered, a solution was replaced every other day, the polycystic kidney epithelial cells were passaged every 2-3 days, and the cells were in a growing state of adhering to the wall. After trypsin enzyme digestion, cells were resuspended by using a complete medium, the concentration of a polycystic kidney epithelial cell suspension was regulated to be 3×10^7/L, the polycystic kidney epithelial cell suspension was inoculated to 96-well plate by […] per well for culture for 24 h, and the suspension was replaced by a culture medium containing 0.1% FBS for synchronization for 24 h.

AMPK in Huh-7 cells = test: Activation activity on AMPK in Huh-7 cells (Western Blot); assay type: cell-based; settings: 10 μM, 12 h, Western Blot gray scale, relative to DMSO = 1
Method: The activation activity of a compound on AMPK in Huh-7 cells was detected by using Western Blot.
Cell culture conditions: Huh-7 cells were cultured in an incubator with 5% CO2 at 37° C. in DMEM complete medium (containing 10% fetal calf serum and 1% streptomycin/penicillin).
Antibody: anti-AMPK (CST, 2532S); anti-pAMPK (CST, 2535S).
Western Blot experiment: the influence of the compound on phosphorylation level of the AMPK in the Huh-7 cells was detected: cells with more than 90% cells alive were taken for the experiment. In a 12-well plate, the Huh-7 cells were plated in the plate at 250000 cells per well, the plate was placed in the incubator with 5% CO2 at 37° C. for culture, an original culture medium was discarded after 12 h, a complete medium containing the pentacyclic triterpenoid saponin was added, a final concentration of subject pentacyclic triterpenoid saponin was set to be 10 μM, and an administration time was set to be 12 h. A positive control compound employs AICAR (100 μM), metformin (70 μM) or A-769662 (100 μM). Then proteins were extracted for Western Blot detection.
Experimental result: a Western Blot experimental result was subjected to gray scale scanning, a p-AMPK/AMPK ratio of negative control DMSO was defined as 1, and a p-AMPK/AMPK ratio of the subject compound was a relative ratio of a negative control group. The larger the numerical value was, the stronger the activation activity of the AMPK of the compound was.

[3] = HFD NASH rats, summary in words
[4] = HFD induced NASH model rats, 5 mg/Kg, n = 8
[5] = serum of HFD induced NASH model rats, 5 mg/Kg, n = 8

Question: Which “inflammatory responses of the livers” value [1, 3] does the source give for madecassoside [(VI)] here?
Answer: The value was “inhibit”.

Question: What about the “lipid accumulation, caused by the high fat diets, of the rat livers” value [1, 3] of the same substance?
Answer: The value was “effectively lower”.

Question: What about the “Liver TC” value [1, 4] of the same substance?
Answer: Its value is 0.472 ± 0.201** mmoL/gprot.

Question: And the “Liver TG” value [1, 4]?
Answer: The value was 1.240 ± 0.213** mmoL/gprot.

Question: What about the “Serum LDL-c” value [1, 4] of the same substance?
Answer: The value was 47.25 ± 7.45* mg/dL.

Question: And the “Serum TG” value [1, 4]?
Answer: Its value is 18.83 ± 4.11** mg/dL.

Question: And the ALT [1, 5]?
Answer: The ALT was 65.86 ± 10.43*** U/L.

Question: What about the AST [1, 5] of the same substance?
Answer: Its AST is 127.21 ± 9.34* U/L.

Question: And the MDA [1, 5]?
Answer: Its MDA is 11.59 ± 2.88*.

Question: And the “Inhibition rate (%)” value [2]?
Answer: The value was 76.3 ± 2.3 %.

Question: And the pAMPK/AMPK ratio (AMPK in Huh-7 cells)?
Answer: The pAMPK/AMPK ratio was 2.27.
